# Results from patent publication US20140155410A1 (GlaxoSmithKline LLC, priority 2008, published 2014).
# Biological target: T1, Full length Human FAK (Flag-His-TEV-FAK1) (Homo sapiens, UniProt Q05397)
# T1 construct: Full length Human FAK was expressed using baculovirus in Sf9 cells; made in house; host or cells: baculovirus in Sf9 cells
# Assay: Biochemical assay for FAK activity, Assay 2: LANCE Ultra ULight peptide phosphorylation, 665 nm/615 nm ratio
# Conditions: Flag-His-TEV-FAK1, 10 μM ATP, 30 min pre-incubation; for IC50: read-out: Assay 2 FAK H 31284A TRF PXC50 (converted)
# Description: Flag-His-TEV-FAK1 was prepared in-house. Full length Human FAK was expressed using baculovirus in Sf9 cells with N-terminal FLAG-6×His tags followed by a TEV cleavage site (FLAG-6×His-TEV-huFAK). […] To measure inhibitors of FAK, compounds were first prepared as a 100× stock in 100% DMSO. […] After incubating for 120 minutes at room temperature, the reaction is quenched by adding 5 uL of 20 mM EDTA and 5nMEu-Anti-pTyr antibody in 1× LANCE detection buffer.
# T1 sequence (Q05397 whole entry): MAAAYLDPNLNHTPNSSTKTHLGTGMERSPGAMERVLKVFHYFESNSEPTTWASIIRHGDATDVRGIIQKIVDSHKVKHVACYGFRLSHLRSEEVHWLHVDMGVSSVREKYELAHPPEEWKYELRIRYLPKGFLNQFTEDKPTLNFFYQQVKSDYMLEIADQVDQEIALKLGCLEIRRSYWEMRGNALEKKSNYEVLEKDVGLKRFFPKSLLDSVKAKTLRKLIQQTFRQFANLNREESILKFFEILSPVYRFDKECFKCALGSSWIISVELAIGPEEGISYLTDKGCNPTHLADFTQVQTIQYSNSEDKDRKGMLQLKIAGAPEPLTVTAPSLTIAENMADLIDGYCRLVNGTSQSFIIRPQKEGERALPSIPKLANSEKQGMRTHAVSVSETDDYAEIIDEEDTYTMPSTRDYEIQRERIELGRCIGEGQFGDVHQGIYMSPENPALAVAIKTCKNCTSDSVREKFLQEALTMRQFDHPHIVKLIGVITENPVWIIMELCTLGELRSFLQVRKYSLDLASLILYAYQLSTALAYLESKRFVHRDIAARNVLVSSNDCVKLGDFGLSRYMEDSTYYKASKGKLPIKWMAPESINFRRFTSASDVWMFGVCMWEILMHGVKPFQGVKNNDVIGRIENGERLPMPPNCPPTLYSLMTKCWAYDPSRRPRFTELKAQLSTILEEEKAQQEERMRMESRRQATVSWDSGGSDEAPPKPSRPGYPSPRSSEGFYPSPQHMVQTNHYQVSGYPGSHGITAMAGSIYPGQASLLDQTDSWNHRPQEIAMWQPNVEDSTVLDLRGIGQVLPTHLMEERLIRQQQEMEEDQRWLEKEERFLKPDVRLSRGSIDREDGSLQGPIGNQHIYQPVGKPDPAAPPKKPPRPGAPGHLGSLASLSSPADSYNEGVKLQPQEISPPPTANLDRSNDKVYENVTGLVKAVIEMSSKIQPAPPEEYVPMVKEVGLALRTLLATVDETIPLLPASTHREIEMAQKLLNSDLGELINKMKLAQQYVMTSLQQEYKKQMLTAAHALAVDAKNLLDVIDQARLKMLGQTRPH
SMILES,IC50 [nM],Assay 2 FAK H 31284A TRF PXC50
"CCn1nc(CCN2CCCC2)cc1Nc1cc(Nc2ccccc2C(=O)NC)c(Cl)cn1 [Example 46, 2-{[5-Chloro-2-({1-ethyl-3-[2-(1-pyrrolidinyl)ethyl]-1H-pyrazol-5-yl}amino)-4-pyridinyl]amino}-N-methylbenzamide]",12.6,
"CONC(=O)c1ccccc1Nc1cc(Nc2cnn(C)c2C)ncc1Cl [Example 47, 2-({5-Chloro-2-[(1,5-dimethyl-1H-pyrazol-4-yl)amino]-4-pyridinyl}amino)-N-(methyloxy)benzamide]",2.51,
"CONC(=O)c1ccccc1Nc1cc(Nc2c(C)cnn2C(C)C)ncc1Cl [Example 49, 2-[(5-Chloro-2-{[4-methyl-1-(1-methylethyl)-1H-pyrazol-5-yl]amino}-4-pyridinyl)amino]-N-(methyloxy)benzamide]",63.1,
"CCn1ncc(C)c1Nc1cc(Nc2ccccc2C(=O)NOC)c(Cl)cn1 [Example 50, 2-({5-Chloro-2-[(1-ethyl-4-methyl-1H-pyrazol-5-yl)amino]-4-pyridinyl}amino)-N-(methyloxy)benzamide]",12.6,
"CONC(=O)c1ccccc1Nc1cc(Nc2c(C)cnn2CC(C)C)ncc1Cl [Example 51, 2-[(5-Chloro-2-{[4-methyl-1-(2-methylpropyl)-1H-pyrazol-5-yl]amino}-4-pyridinyl)amino]-N-(methyloxy)benzamide]",20,
"CONC(=O)c1ccccc1Nc1cc(Nc2cc(CO)nn2C(C)C)ncc1Cl [Example 52, 2-[(5-Chloro-2-{[3-(hydroxymethyl)-1-(1-methylethyl)-1H-pyrazol-5-yl]amino}-4-pyridinyl)amino]-N-(methyloxy)benzamide]",6.31,
"CNC(=O)c1ccccc1Nc1cc(Nc2cc(C)nn2C)ncc1C1CC1 [Example 53, 2-[5-Cyclopropyl-2-(2,5-dimethyl-2H-pyrazol-3-ylamino)-pyridin-4-ylamino]-N-methyl-benzamide]",39.8,
"CCn1nc(C)cc1Nc1cc(Nc2ccccc2C(=O)NC)c(C2CC2)cn1 [Example 54, 2-[5-Cyclopropyl-2-(2-ethyl-5-methyl-2H-pyrazol-3-ylamino)-pyridin-4-ylamino]-N-methylbenzamide]",31.6,
"CONC(=O)c1ccccc1Nc1cc(Nc2cc(C)nn2C)ncc1C1CC1 [Example 55, 2-[5-Cyclopropyl-2-(2,5-dimethyl-2H-pyrazol-3-ylamino)-pyridin-4-ylamino]-N-methoxy-benzamide]",10,
"CCn1nc(C)cc1Nc1cc(Nc2ccccc2C(=O)NOC)c(C2CC2)cn1 [Example 56, 2-[5-Cyclopropyl-2-(2-ethyl-5-methyl-2H-pyrazol-3-ylamino)-pyridin-4-ylamino]-N-methoxy-benzamide]",15.8,
"CNC(=O)c1ccccc1Nc1cc(Nc2cc(C)nn2C)ncc1C(C)C [Example 58, 2-[2-(2,5-Dimethyl-2H-pyrazol-3-ylamino)-5-isopropyl-pyridin-4-ylamino]-N-methyl-benzamide]",50.1,
"CCn1nc(COC)cc1Nc1cc(Nc2ccccc2C(=O)NC)c(Cl)cn1 [Example 60, 2-{[5-Chloro-2-({1-ethyl-3-[(methyloxy)methyl]-1H-pyrazol-5-yl}amino)-4-pyridinyl]amino}-N-methylbenzamide]",12.6,
"CCOCc1cc(Nc2cc(Nc3ccccc3C(=O)NC)c(Cl)cn2)n(C(C)C)n1 [Example 61, 2-[(5-Chloro-2-{[3-[(ethyloxy)methyl]-1-(1-methylethyl)-1H-pyrazol-5-yl]amino}-4-pyridinyl)amino]-N-methylbenzamide]",25.1,
"CCn1nc(C)cc1Nc1cc(Nc2ccccc2C(=O)N(C)O)c(Cl)cn1 [Example 63, 2-({5-Chloro-2-[(1-ethyl-3-methyl-1H-pyrazol-5-yl)amino]-4-pyridinyl}amino)-N-hydroxy-N-methylbenzamide]",50.1,
"CCONC(=O)c1ccccc1Nc1cc(Nc2cc(C)nn2CC)ncc1Cl [Example 64, 2-({5-Chloro-2-[(1-ethyl-3-methyl-1H-pyrazol-5-yl)amino]-4-pyridinyl}amino)-N-(ethyloxy)benzamide]",79.4,
"CNC(=O)c1ccccc1Nc1cc(Nc2cc(C)nn2C)ncc1C#N [Example 65, 2-({5-Cyano-2-[(1,3-dimethyl-1H-pyrazol-5-yl)amino]-4-pyridinyl}amino)-N-methylbenzamide]",15.8,
"CONC(=O)c1ccc(Cl)cc1Nc1cc(Nc2cc(C)nn2C(C)C)ncc1Cl [Example 69, 4-Chloro-2-[(5-chloro-2-{[3-methyl-1-(1-methylethyl)-1H-pyrazol-5-yl]amino}-4-pyridinyl)amino]-N-(methyloxy)benzamide]",2.51,

# Second part, the compound after the results:
IC50 [nM],Assay 2 FAK H 31284A TRF PXC50,SMILES
6.31,,CONC(=O)c1cc(Cl)ccc1Nc1cc(Nc2cc(C)nn2C(C)C)ncc1Cl [Example 70]
6.31,,"CONC(=O)c1cc(F)ccc1Nc1cc(Nc2cc(C)nn2C(C)C)ncc1Cl [Example 71, 2-[(5-Chloro-2-{[3-methyl-1-(1-methylethyl)-1H-pyrazol-5-yl]amino}-4-pyridinyl)amino]-5-fluoro-N-(methyloxy)benzamide]"
2.51,,"CONC(=O)c1cccc(F)c1Nc1cc(Nc2cc(C)nn2C(C)C)ncc1Cl [Example 72, 2-[(5-Chloro-2-{[3-methyl-1-(1-methylethyl)-1H-pyrazol-5-yl]amino}-4-pyridinyl)amino]-3-fluoro-N-(methyloxy)benzamide]"
1.26,,"CONC(=O)c1ccc(F)cc1Nc1cc(Nc2cc(C)nn2C(C)C)ncc1Cl [Example 73, 2-[(5-Chloro-2-{[3-methyl-1-(1-methylethyl)-1H-pyrazol-5-yl]amino}-4-pyridinyl)amino]-4-fluoro-N-(methyloxy)benzamide]"
3.16,,"CCn1nc(C)cc1Nc1cc(Nc2c(F)cccc2C(=O)NC)c(Cl)cn1 [Example 74, 2-({5-Chloro-2-[(1-ethyl-3-methyl-1H-pyrazol-5-yl)amino]-4-pyridinyl}amino)-3-fluoro-N-methylbenzamide]"
,8.3,"CNC(=O)c1cccc(F)c1Nc1cc(Nc2cc(C)nn2C)ncc1Cl [Example 75, 2-({5-Chloro-2-[(1,3-dimethyl-1H-pyrazol-5-yl)amino]-4-pyridinyl}amino)-3-fluoro-N-methylbenzamide]"
12.6,,"CNC(=O)c1cccc(F)c1Nc1cc(Nc2cnn(C)c2C)ncc1Cl [Example 76, 2-({5-Chloro-2-[(1,5-dimethyl-1H-pyrazol-4-yl)amino]-4-pyridinyl}amino)-3-fluoro-N-methylbenzamide]"
1,,"CCn1nc(C)cc1Nc1cc(Nc2c(F)cccc2C(=O)NC)c(C(F)(F)F)cn1 [Example 77, 2-{[2-[(1-Ethyl-3-methyl-1H-pyrazol-5-yl)amino]-5-(trifluoromethyl)-4-pyridinyl]amino}-3-fluoro-N-methylbenzamide]"
1.58,,"CNC(=O)c1cccc(F)c1Nc1cc(Nc2cc(C)nn2C)ncc1C(F)(F)F [Example 78, 2-{[2-[(1,3-Dimethyl-1H-pyrazol-5-yl)amino]-5-(trifluoromethyl)-4-pyridinyl]amino}-3-fluoro-N-methylbenzamide]"
10,,"CCn1nc(CO)cc1Nc1cc(Nc2c(F)cccc2C(=O)NC)c(C(F)(F)F)cn1 [Example 79, 2-{[2-{[1-Ethyl-3-(hydroxymethyl)-1H-pyrazol-5-yl]amino}-5-(trifluoromethyl)-4-pyridinyl]amino}-3-fluoro-N-methylbenzamide]"
12.6,,"CNC(=O)c1cccc(F)c1Nc1cc(Nc2cc(CO)nn2C)ncc1C(F)(F)F [Example 80, 3-Fluoro-2-{[2-{[3-(hydroxymethyl)-1-methyl-1H-pyrazol-5-yl]amino}-5-(trifluoromethyl)-4-pyridinyl]amino}-N-methylbenzamide]"
2,,"CCn1nc(CCO)cc1Nc1cc(Nc2c(F)cccc2C(=O)NC)c(C(F)(F)F)cn1 [Example 81, 2-{[2-{[1-Ethyl-3-(2-hydroxyethyl)-1H-pyrazol-5-yl]amino}-5-(trifluoromethyl)-4-pyridinyl]amino}-3-fluoro-N-methylbenzamide]"
0.794,,"CNC(=O)c1cccc(F)c1Nc1cc(Nc2cc(CCO)nn2C)ncc1C(F)(F)F [Example 82, 3-Fluoro-2-{[2-{[3-(2-hydroxyethyl)-1-methyl-1H-pyrazol-5-yl]amino}-5-(trifluoromethyl)-4-pyridinyl]amino}-N-methylbenzamide]"
12.6,,"CNC(=O)c1cc(F)ccc1Nc1cc(Nc2cc(C)nn2C)ncc1Cl [Example 83, 2-({5-Chloro-2-[(1,3-dimethyl-1H-pyrazol-5-yl)amino]-4-pyridinyl}amino)-5-fluoro-N-methylbenzamide]"
10,,"CCn1nc(C)cc1Nc1cc(Nc2ccc(F)cc2C(=O)NC)c(Cl)cn1 [Example 84, 2-({5-Chloro-2-[(1-ethyl-3-methyl-1H-pyrazol-5-yl)amino]-4-pyridinyl}amino)-5-fluoro-N-methylbenzamide]"
63.1,,"CNC(=O)c1cc(F)ccc1Nc1cc(Nc2cc(C)nn2C(C)C)ncc1Cl [Example 85, 2-[(5-Chloro-2-{[3-methyl-1-(1-methylethyl)-1H-pyrazol-5-yl]amino}-4-pyridinyl)amino]-5-fluoro-N-methylbenzamide]"
1.58,,"CNC(=O)c1ccc(F)cc1Nc1cc(Nc2cc(C)nn2C(C)C)ncc1Cl [Example 86, 2-[(5-Chloro-2-{[3-methyl-1-(1-methylethyl)-1H-pyrazol-5-yl]amino}-4-pyridinyl)amino]-4-fluoro-N-methylbenzamide]"
2.51,,"CNC(=O)c1ccc(F)cc1Nc1cc(Nc2cc(C)nn2C)ncc1Cl [Example 87, 2-({5-Chloro-2-[(1,3-dimethyl-1H-pyrazol-5-yl)amino]-4-pyridinyl}amino)-4-fluoro-N-methylbenzamide]"
